Patent EP2678315B1, “(Pyridin-4-yl)benzylamides as allosteric modulators of alpha 7 nAChR” (Janssen Pharmaceutica, N.V., priority 2011, dated 2012)
pEC50: −log10 of the molar value. Several values for one entry are separate records, joined by “and”; a condition that tells them apart may be missing. Identical values can stand only once. Like-named read-outs stand apart in the source and are kept apart here.

Experiments:
human alpha 7-wt nAChR [1] = target: T1, human alpha 7-wt nAChR (Homo sapiens, UniProt P36544); experiment: Patch-clamp current recording (whole-cell voltage-clamp, GH4C1 cells); type: cell-based; design: key: Type 0 compounds minimally change the effect size of the current elicited by 1 mM choline.; Type 1 compounds enhance the effect size of the current elicited by 1 mM choline but minimally alter the kinetics of the receptor.; Type 2 compounds enhance the effect size of the current elicited by 1 mM choline while reducing the rate and/or the extent of desensitization.; Type 3 compounds enhance the effect size of the current elicited by 1 mM choline. When tested at higher concentrations up to 10 µM they completely inhibit desensitization; Type 4 compounds allow for an initial desensitization of the receptor followed by a re-opening of the receptor during agonist application; details: current elicited by 1 mM choline
T1 construct: expressed in transfected cells
T1 sequence (P36544 23-502): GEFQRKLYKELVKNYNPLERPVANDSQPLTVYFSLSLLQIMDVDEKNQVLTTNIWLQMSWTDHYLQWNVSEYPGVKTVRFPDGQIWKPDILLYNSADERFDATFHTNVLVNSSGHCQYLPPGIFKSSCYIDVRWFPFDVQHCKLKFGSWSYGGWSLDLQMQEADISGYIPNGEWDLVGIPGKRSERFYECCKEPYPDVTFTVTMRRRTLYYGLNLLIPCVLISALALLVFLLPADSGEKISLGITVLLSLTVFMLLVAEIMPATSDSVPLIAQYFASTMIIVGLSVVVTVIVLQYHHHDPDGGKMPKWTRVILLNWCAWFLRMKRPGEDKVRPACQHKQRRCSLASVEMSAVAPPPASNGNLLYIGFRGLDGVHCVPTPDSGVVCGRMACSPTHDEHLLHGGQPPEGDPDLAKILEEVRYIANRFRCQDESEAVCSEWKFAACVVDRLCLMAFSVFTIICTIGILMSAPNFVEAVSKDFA
Experimental: The compounds of the present invention are classified as type 1-4, based on qualitative kinetic properties, as determined by whole-cell voltage-clamp recordings. This classification is based on the effect of an alpha 7 PAM compound, as described hereinbefore, on the signal elicited by an agonist application. In particular, said agonist is choline at a concentration of 1mM. In a preferred experimental setting, said alpha 7 PAM compound and choline are simultaneously applied to the cell, as described hereinafter. Desensitization is defined as the closure of the receptor upon activation during the application of the agonist in whole-cell voltage-clamp electrophysiology measurements seen as the reduction of the […] current after initial activation by the agonist.
The definition of the PAM types 1-4 is described hereinafter: Type 0 compounds minimally change the effect size of the current elicited by 1 mM choline. Type 1 compounds enhance the effect size of the current elicited by 1 mM choline but minimally alter the kinetics of the receptor. In particular, the rate and the extent of desensitization and of deactivation of the receptor elicited by the agonist is not affected. The compound-modulated response to 1 mM choline, therefore, is close to a linear scaling of the 1 mM choline response in absence of the alpha 7 PAM compound: Type 2 compounds enhance the effect size of the current elicited by 1 mM choline while reducing the rate and/or the extent of desensitization. Deactivation of the receptor is generally unaffected. Type 3 compounds enhance the effect size of the current elicited by 1 mM choline. […] Deactivation of the receptor may be slowed down. Type 4 compounds allow for an initial desensitization of the receptor followed by a re-opening of the receptor during agonist application. At low-potency concentrations of the alpha 7 PAM compound, the agonist-induced activation, which is followed by desensitization, can still be separated from the compound-induced re-opening as an initial inward current-maximum. At higher potency concentrations of the alpha 7 PAM compound, the re-opening occurs faster than the closure due to desensitization so that the initial current-maximum disappears.
A compound was considered to have interesting PAM-like activity when the potentiation of the peak current was at least 200% compared to the control choline response (= 100%). Such compounds are classified as belonging to a particular PAM type in the Experimental Part. Compounds not meeting the condition are not classified as belonging to a particular PAM-type.
The compounds also have a potentiating effect on the response to choline when measured by whole-cell patch clamp electrophysiology in GH4C1 cells stably over-expressing the human wild-type alpha 7 receptor.
Example D.2 : Patch-clamp current recording
Patch-clamp recording from mammalian cells has provided a powerful means of assessing the function of membrane-bound proteins thought to be subunits of ligand-gated ion channels. Activation of such proteins by endogenous or exogenous ligands cause opening of a pore associated with the receptor through which ions flow down their electrochemical gradient. In the case of the human alpha 7-wt nAChR-expressing GH4C1 recombinant cell line the preferential permeability to calcium of this receptor means that calcium flows into the cell upon activation by ACh, choline and other nicotinic ligands giving rise to a calcium current. Since this receptor rapidly desensitizes in the presence of agonist it is important that an application system is used which is capable of very rapid switching of solutions (< 100 ms) to prevent partial or full desensitisation of receptor responses coincident with the time of agonist application. Consequently, a second convenient technique to assess the enhancement of nicotinic efficacy is a patch-clamp recording from human alpha 7-wt nAChR-expressing GH4C1 cells coupled with a rapid-application system. […]

human alpha 7-wt nAChR [2] = target: T1, human alpha 7-wt nAChR; experiment: Ca2+ flux imaging (FDSS) (protocol B); type: cell-based; details: for EC50: read-out: pEC50 (converted); for Emax: read-out: % Efficacy
Experimental: Example D.1 : Ca^2+ flux imaging (FDSS) (protocol B)
• a) Assay buffer Hanks buffered saline solution (HBSS, Invitrogen, Belgium), supplemented with 10 mM HEPES (Invitrogen, Belgium), CaCl2 to a final concentration of 5 mM, 0.1 % Bovine serum albumin (Sigma-Aldrich NV, Belgium). • b) Calcium-sensitive dye - Fluo-4AM Fluo-4AM (Molecular Probes, USA) was dissolved in DMSO containing 10% Pluronic acid (Molecular Probes, USA) to give a stock solution which was diluted in assay buffer supplemented with 5 mM probenicid (Sigma, Aldrich NV, Belgium) to give a final concentration of 2 µM • c) 384-well plates Black-sided, transparent bottomed 384 well plates coated with poly-D-lysine, PDL pre-coated (Coming, Incorporated, USA) • d) Calcium flux measurement A Functional drug screening system (FDSS, Hamamatsu) was used to measure intracellular free-calcium flux signals.
Monolayers of human alpha 7-wt nAChR-expressing cells were grown in black-sided, transparent bottomed 384 well plates coated with PDL for 24 hours prior to loading with a fluorescent calcium indicator, fluo-4AM for up to 120 minutes.
PAM activity was detected in real time by applying the compounds to be tested to the loaded cells along with an alpha 7 nicotinic receptor agonist during constant monitoring of cellular fluorescence in a FDSS. Compounds giving peak fluorescent responses greater than the response due to agonist alone, were consideted to be alpha 7 nAChR PAMs. The alpha 7 nicotinic receptor agonist was choline, applied at a sub-maximal concentration of 100 µM. In a further setting of the present invention the compounds were applied prior to the alpha 7 nicotinic receptor agonist, in a particular 10 minutes prior to the agonist.
A control response to choline was calculated on each plate from the difference in peak in fluorescence in wells receiving either choline or assay buffer alone. Compounds of the present invention were tested at a concentration range from 0.01 µM to 30 µM. Compounds were considered to have an interesting activity when they potentiated the choline signal at least with 200 % when tested at a concentration of 30 µM (the efficacy of 100 µM choline was defined as 100% in the absence of a PAM). An EC50 (or pEC50) was determined as a concentration relating to half the maximal effect, when a clear sigmoidal curve with top plateau was obtained.

Compound | PAM type (human alpha 7-wt nAChR [1]) | EC50 (human alpha 7-wt nAChR [2]; Ca2+ assay as described in D.1) [µM] | Emax (human alpha 7-wt nAChR [2]; Ca2+ assay as described in D.1) [%] | pEC50 (human alpha 7-wt nAChR [2]) | Emax (human alpha 7-wt nAChR [2]) [%] | % Efficacy (human alpha 7-wt nAChR [2]; Ca2+ assay as described in D.1)
Cc1cc(-c2ccc(N3C[C@@H](C)O[C@@H](C)C3)cc2CNC(=O)CC2CC2)cc(C)n1 [Compound 1, N-[[5-[(2R,6S)-2,6-dimethyl-4-morpholinyl]-2-(2,6-dimethyl-4-pyridinyl)phenyl]methyl]-cyclopropaneacetamide] | 3 | 0.0407 | – | – | – | –
Cc1cc(-c2ccc(N3C[C@@H](C)O[C@@H](C)C3)cc2CNC(=O)C(C)C)cc(C)n1 [Compound 2, N-[[5-[(2R,6S)-2,6-dimethyl-4-morpholinyl]-2-(2,6-dimethyl-4-pyridinyl)phenyl]methyl]-2-methyl-propanamide] | 2 | 0.0372 | 817 | – | – | –
Cc1cc(-c2ccc(N3C[C@@H](C)O[C@@H](C)C3)cc2CNC(=O)c2cc(C)on2)cc(C)n1 [Compound 3] | 1 | – | – | 6.34 | – | –
Cc1cc(-c2ccc(N3C[C@@H](C)O[C@@H](C)C3)cc2CNC(=O)c2conc2C)cc(C)n1 [Compound 4] | 2 | 0.0457 | – | – | – | –
Cc1cc(-c2ccc(N3C[C@@H](C)O[C@@H](C)C3)cc2CNC(=O)C2CC2)cc(C)n1 [Compound 6] | 2 | 0.12 | – | – | – | –
Cc1cc(-c2c(F)cc(N3C[C@@H](C)O[C@@H](C)C3)cc2CNC(=O)C2CCOCC2)cc(C)n1 [Compound 86] | 3 | 0.148 | – | – | – | –
Cc1cc(-c2c(F)cc(N3C[C@@H](C)O[C@@H](C)C3)cc2CNC(=O)C2CC2)ccn1 [Compound 88] | 2 | 0.209 | – | – | 868 | –
Cc1cc(-c2c(F)cc(N3C[C@@H](C)O[C@@H](C)C3)cc2CNC(=O)C(C)C)ccn1 [Compound 89] | 2 | 0.0724 | – | – | – | –
Cc1cc(-c2c(F)cc(N3C[C@@H](C)O[C@@H](C)C3)cc2CNC(=O)c2conc2C)ccn1 [Compound 91] | 2 | 0.0617 | – | – | – | –
Cc1cc(-c2c(F)cc(N3CCO[C@@H](C(F)(F)F)C3)cc2CNC(=O)C(C)C)cc(C)n1 [Compound 99] | 3 | 0.00977 | – | – | 292 | –
Cc1cc(-c2c(F)cc(N3CCO[C@@H](C(F)(F)F)C3)cc2CNC(=O)c2cc(C)on2)cc(C)n1 [Compound 100] | 2 | 0.155 | – | – | – | –
Cc1cc(-c2c(F)cc(N3CCO[C@@H](C(F)(F)F)C3)cc2CNC(=O)C2CC2)cc(C)n1 [Compound 102] | 3 | 0.0331 | – | – | 962 | –
Cc1cc(-c2c(F)cc(N3CCO[C@@H](C(F)(F)F)C3)cc2CNC(=O)c2conc2C)cc(C)n1 [Compound 103] | 3 | 0.0166 | – | – | 796 | –
Cc1cc(-c2c(F)cc(N3CCO[C@@H](C(F)(F)F)C3)cc2CNC(=O)CC2CC2)cc(C)n1 [Compound 104] | 3 | 0.00912 | – | – | – | –
Cc1cc(-c2c(F)cc(N3CCO[C@H](C(F)(F)F)C3)cc2CNC(=O)CC2CCC2)cc(C)n1 [Compound 105] | 3 | 0.017 | – | – | 559 | –
Cc1cc(-c2c(F)cc(N3CCO[C@H](C(F)(F)F)C3)cc2CNC(=O)c2conc2C)cc(C)n1 [Compound 106] | 2 | 0.0363 | – | – | 159 | –
Cc1cc(-c2c(F)cc(N3CCO[C@H](C(F)(F)F)C3)cc2CNC(=O)C(C)C)cc(C)n1 [Compound 107] | 2 | 0.0309 | – | – | 266 | –
Cc1cc(-c2c(F)cc(N3CCO[C@H](C(F)(F)F)C3)cc2CNC(=O)CC2CC2)cc(C)n1 [Compound 108] | 2 | 0.0186 | – | – | 432 | –
Cc1cc(-c2c(F)cc(N3CCO[C@H](C(F)(F)F)C3)cc2CNC(=O)C2CC2)cc(C)n1 [Compound 109] | 3 | 0.0813 | – | – | 258 | –
Cc1cc(-c2c(F)cc(N3C[C@@H](C)O[C@@H](C)C3)c(F)c2CNC(=O)C2CC2)cc(C)n1 [Compound 122] | – | 0.589 | – | – | – | –
Cc1cc(-c2ccc(N3CC4CCC(C3)O4)cc2CNC(=O)C(C)C)cc(C)n1 [Compound 129] | – | 0.724 | – | – | 296 | –
Cc1cc(-c2ccc(N3CC4CCC(C3)O4)cc2CNC(=O)CC2CC2)cc(C)n1 [Compound 130] | – | – | 95.5 | – | – | –
Cc1cc(-c2ccc(N3C[C@@H](C)O[C@@H](C)C3)c(CNC(=O)c3ccc(F)cc3C)c2)cc(C)n1 [Compound 135] | – | 0.0141 | – | – | – | –
Cc1nocc1C(=O)NCc1cc(N2CCOCC2)ccc1-c1ccncc1 [Compound 138] | – | – | 386 | – | – | –
O=C(CC1CC1)NCc1cc(N2CCOCC2)ccc1-c1ccncc1 [Compound 139] | – | 3.16 | – | – | 367 | –
Cc1cc(-c2ccc(N3CCOCC3)cc2CNC(=O)C(C)C)ccn1 [Compound 140] | – | – | – | – | – | 495.5% and 591.6%
Cc1cc(-c2ccc(N3CCOCC3)cc2CNC(=O)c2cc(C)on2)ccn1 [Compound 142] | – | – | 545 | – | – | –
Cc1cc(-c2ccc(N3CCOCC3)cc2CNC(=O)c2conc2C)ccn1 [Compound 143] | – | 8.71 | – | – | 130 | –
